# Assay results from ChEMBL document CHEMBL2331330, “Substituted piperidinyl glycinyl 2-cyano-4,5-methano pyrrolidines as potent and stable dipeptidyl peptidase IV inhibitors” (Bioorg Med Chem Lett, 2013).
# Legend:
# Dipeptidyl peptidase 4 = Dipeptidyl peptidase 4 (Homo sapiens, UniProt P27487); assay: Inhibition of human DPP4 using gly-pro-para-nitroanilide as substrate
# [1] = Degradation half life of the compound at 30 mM at pH 7.2; assay type: physicochemical; conditions: buffer
# [2] = Degradation half life of the compound at 50 mM at pH 7.2; assay type: physicochemical; conditions: buffer
# [3] = Degradation half life of the compound at 10 mM at pH 7.2; assay type: physicochemical; conditions: buffer
# Sequence of Dipeptidyl peptidase 4 (P27487 whole entry): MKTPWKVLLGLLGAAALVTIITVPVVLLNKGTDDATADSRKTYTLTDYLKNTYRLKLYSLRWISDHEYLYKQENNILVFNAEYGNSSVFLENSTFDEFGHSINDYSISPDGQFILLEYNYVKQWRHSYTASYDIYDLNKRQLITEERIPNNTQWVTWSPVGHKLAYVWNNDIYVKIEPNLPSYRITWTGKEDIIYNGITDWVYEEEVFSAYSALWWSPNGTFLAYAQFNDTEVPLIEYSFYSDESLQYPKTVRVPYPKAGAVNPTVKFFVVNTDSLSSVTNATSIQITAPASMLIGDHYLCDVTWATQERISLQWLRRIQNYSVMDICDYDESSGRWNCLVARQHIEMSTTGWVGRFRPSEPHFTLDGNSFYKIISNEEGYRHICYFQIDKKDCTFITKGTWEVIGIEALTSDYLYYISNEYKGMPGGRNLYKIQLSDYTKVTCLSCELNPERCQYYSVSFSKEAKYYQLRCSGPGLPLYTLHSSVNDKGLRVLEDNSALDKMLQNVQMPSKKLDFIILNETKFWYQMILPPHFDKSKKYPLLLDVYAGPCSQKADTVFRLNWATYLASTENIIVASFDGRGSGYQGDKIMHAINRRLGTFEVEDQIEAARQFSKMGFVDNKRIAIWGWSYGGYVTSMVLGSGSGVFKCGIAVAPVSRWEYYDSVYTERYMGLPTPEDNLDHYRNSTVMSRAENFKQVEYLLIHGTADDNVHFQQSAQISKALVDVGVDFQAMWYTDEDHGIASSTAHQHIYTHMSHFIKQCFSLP
Ki (Dipeptidyl peptidase 4) [nM],half-life at 30000 µM [1] [h],half-life at 50000 µM [2] [h],half-life at 10000 µM [3] [h],SMILES
13,–,–,–,N#C[C@@H]1C[C@@H]2C[C@@H]2N1C(=O)[C@@H](N)C1CCN(S(=O)(=O)c2cccc3ccccc23)CC1
18,–,–,–,N#C[C@@H]1C[C@@H]2C[C@@H]2N1C(=O)[C@@H](N)C1CCN(C(=O)Cc2ccccc2)CC1
–,245,192,473,CCC1([C@H](N)C(=O)N2[C@H](C#N)C[C@@H]3C[C@@H]32)CCN(C(=O)CC(C)(C)C)CC1
–,38.4,38.4,48,CC(C)(C)CC(=O)N1CCC([C@H](N)C(=O)N2[C@H](C#N)C[C@@H]3C[C@@H]32)CC1
